# Results: patent US20240360178A1, “MACROCYCLIC IMMUNOMODULATORS” (Bristol-Myers Squibb Company, priority 2021, published 2024)
# pIC50: −log10 of the molar value. Positions of bridges follow the written chain, without caps; N, C: chain ends. Non-standard residues stand in square brackets, D forms with d. Residues, ends and D or L forms follow the SMILES beside them. Bip = N[C@@H](Cc1ccc(-c2ccccc2)cc1)C(=O)O; NMeF = CN[C@@H](Cc1ccccc1)C(=O)O; NMeA = CN[C@@H](C)C(=O)O; Dab = NCC[C@H](N)C(=O)O
# Biological target: T1, human PD-1 (Jurkat-PD-1 cells) / PE-labeled human PD-L1-Ig (Homo sapiens, UniProt Q15116)
# T1 construct: expressed in transfected cells; host or cells: Jurkat cell line over-expressing human PD-1
# T1 sequence (Q15116 25-288): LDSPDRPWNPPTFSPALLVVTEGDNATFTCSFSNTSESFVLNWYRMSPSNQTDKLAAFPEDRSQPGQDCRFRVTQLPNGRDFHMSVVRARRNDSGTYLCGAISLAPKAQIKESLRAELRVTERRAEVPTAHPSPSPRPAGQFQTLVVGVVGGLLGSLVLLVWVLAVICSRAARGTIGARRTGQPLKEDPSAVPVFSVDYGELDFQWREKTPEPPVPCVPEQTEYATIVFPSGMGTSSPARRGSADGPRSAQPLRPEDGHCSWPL
# Test: Jurkat-PD-1 Cell Binding High-Content Screening Assay (CBA); Jurkat hPD1-PDL1 assay
# Conditions: Jurkat cell line over-expressing human PD-1; PE-labeled PD-L1-Ig 20 nM final; compound incubated 2 hours at 37° C.; read-out: Jurkat HPD1-PDL1 IC50
# Method in brief: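 Jurkat-hPD-1 cells; cpd 2 h, 37° C; then PE-PD-L1-Ig 20 nM final in DMEM/10% FCS; high-content imaging read-out.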
row,pIC50,Structure (SMILES)
1,6.77,CC(C)C[C@@H]1NC(=O)[C@H](CCN)NC(=O)[C@H](Cc2ccccc2)N(C)C(=O)[C@H](C)N(C)C(=O)[C@H](CCCNC(=N)N)NC(=O)[C@H](Cc2ccc(-c3ccccc3)cc2)NC(=O)[C@H](C(C)C)NC(=O)[C@H](Cc2c[nH]c3ccccc23)NC(=O)[C@H](CC(=O)O)NC(=O)[C@H](Cc2ccc(O)cc2)NC(=O)[C@H](CCC(N)=O)NC(=O)CSC[C@@H](C(=O)N[C@@H](C)C(N)=O)NC(=O)[C@H](CO)NC(=O)[C@H](C(C)C)NC1=O [Example 1307] ({CH2CO}-QYDWV[Bip]R[NMeA][NMeF][Dab]LVSCA-NH2; thioether N-14)
2,6.39,CC(C)C[C@@H]1NC(=O)CSC[C@@H](C(=O)N[C@@H](C)C(N)=O)NC(=O)[C@H](CO)NC(=O)[C@H](C(C)C)NC(=O)[C@H](CC(C)C)NC(=O)[C@H](CCCNC(=N)N)NC(=O)[C@H](Cc2ccccc2)N(C)C(=O)[C@H](C)N(C)C(=O)[C@H](CCCNC(=N)N)NC(=O)[C@H](Cc2ccc(-c3ccccc3)cc2)NC(=O)[C@H](C(C)C)NC(=O)[C@H](Cc2c[nH]c3ccccc23)NC(=O)[C@H](CC(=O)O)NC(=O)[C@H](Cc2ccc(O)cc2)NC1=O [Example 1308] ({CH2CO}-LYDWV[Bip]R[NMeA][NMeF]RLVSCA-NH2; thioether N-14)
3,6.47,CC(C)C[C@@H]1NC(=O)[C@H](CCN)NC(=O)[C@H](Cc2ccccc2)N(C)C(=O)[C@H](C)N(C)C(=O)[C@H](CCCNC(=N)N)NC(=O)[C@H](Cc2ccc(-c3ccccc3)cc2)NC(=O)[C@H](C(C)C)NC(=O)[C@H](Cc2c[nH]c3ccccc23)NC(=O)[C@H](CC(=O)O)NC(=O)[C@H](Cc2ccc(O)cc2)NC(=O)[C@H](CCC(N)=O)NC(=O)CSC[C@@H](C(=O)NCC(N)=O)NC(=O)[C@H](CO)NC(=O)[C@H](C(C)C)NC1=O [Example 1309] ({CH2CO}-QYDWV[Bip]R[NMeA][NMeF][Dab]LVSCG-NH2; thioether N-14)
4,6.47,CC(C)C[C@@H]1NC(=O)[C@H](CCCNC(=N)N)NC(=O)[C@H](Cc2ccccc2)N(C)C(=O)[C@H](C)N(C)C(=O)[C@H](CCCNC(=N)N)NC(=O)[C@H](Cc2ccc(-c3ccccc3)cc2)NC(=O)[C@H](C(C)C)NC(=O)[C@H](Cc2c[nH]c3ccccc23)NC(=O)[C@H](CC(=O)O)NC(=O)[C@H](Cc2ccc(O)cc2)NC(=O)[C@H](CC(N)=O)NC(=O)CSC[C@@H](C(=O)NCC(N)=O)NC(=O)[C@H]([C@@H](C)O)NC(=O)[C@H](C(C)C)NC1=O [Example 1310] ({CH2CO}-NYDWV[Bip]R[NMeA][NMeF]RLVTCG-NH2; thioether N-14)
5,6.12,CC(C)C[C@@H]1NC(=O)[C@H](CCCNC(=N)N)NC(=O)[C@H](Cc2ccccc2)N(C)C(=O)[C@H](C)N(C)C(=O)[C@H](CCCNC(=N)N)NC(=O)[C@H](Cc2ccc(-c3ccccc3)cc2)NC(=O)[C@H](C(C)C)NC(=O)[C@H](Cc2c[nH]c3ccccc23)NC(=O)[C@H](CC(=O)O)NC(=O)[C@H](Cc2ccc(O)cc2)NC(=O)[C@H](CCC(N)=O)NC(=O)CSC[C@@H](C(=O)NCC(N)=O)NC(=O)[C@H]([C@@H](C)O)NC(=O)[C@H](C(C)C)NC1=O [Example 1311] ({CH2CO}-QYDWV[Bip]R[NMeA][NMeF]RLVTCG-NH2; thioether N-14)
6,6.12,CC(C)C[C@@H]1NC(=O)CSC[C@@H](C(=O)NCC(N)=O)NC(=O)[C@H]([C@@H](C)O)NC(=O)[C@H](C(C)C)NC(=O)[C@H](CC(C)C)NC(=O)[C@H](CCCNC(=N)N)NC(=O)[C@H](Cc2ccccc2)N(C)C(=O)[C@H](C)N(C)C(=O)[C@H](CCCNC(=N)N)NC(=O)[C@H](Cc2ccc(-c3ccccc3)cc2)NC(=O)[C@H](C(C)C)NC(=O)[C@H](Cc2c[nH]c3ccccc23)NC(=O)[C@H](CC(=O)O)NC(=O)[C@H](Cc2ccc(O)cc2)NC1=O [Example 1312] ({CH2CO}-LYDWV[Bip]R[NMeA][NMeF]RLVTCG-NH2; thioether N-14)
7,6.62,CC(C)C[C@@H]1NC(=O)[C@H](CCCCN)NC(=O)[C@H](Cc2ccccc2)N(C)C(=O)[C@H](C)N(C)C(=O)[C@H](CCCNC(=N)N)NC(=O)[C@H](Cc2ccc(-c3ccccc3)cc2)NC(=O)[C@H](C(C)C)NC(=O)[C@H](Cc2c[nH]c3ccccc23)NC(=O)[C@H](CC(=O)O)NC(=O)[C@H](Cc2ccc(O)cc2)NC(=O)[C@H](CCC(N)=O)NC(=O)CSC[C@@H](C(=O)NCC(N)=O)NC(=O)[C@H](CO)NC(=O)[C@H](C(C)C)NC1=O [Example 1313] ({CH2CO}-QYDWV[Bip]R[NMeA][NMeF]KLVSCG-NH2; thioether N-14)
8,7.05,CC(C)C[C@@H]1NC(=O)[C@H](CCN)NC(=O)[C@H](Cc2ccccc2)N(C)C(=O)[C@H](C)N(C)C(=O)[C@H](CCCNC(=N)N)NC(=O)[C@H](Cc2ccc(-c3ccccc3)cc2)NC(=O)[C@H](C(C)C)NC(=O)[C@H](Cc2c[nH]c3ccccc23)NC(=O)[C@H](CC(=O)O)NC(=O)[C@H](Cc2ccc(O)cc2)NC(=O)[C@H](Cc2cnc[nH]2)NC(=O)CSC[C@@H](C(=O)NCC(N)=O)NC(=O)[C@H](CO)NC(=O)[C@H](C(C)C)NC1=O [Example 1314] ({CH2CO}-HYDWV[Bip]R[NMeA][NMeF][Dab]LVSCG-NH2; thioether N-14)
9,6.28,CC(C)C[C@@H]1NC(=O)[C@H](CCCNC(=N)N)NC(=O)[C@H](Cc2ccccc2)N(C)C(=O)[C@H](CCCNC(=N)N)NC(=O)[C@H](CCCNC(=N)N)NC(=O)[C@H](Cc2ccc(-c3ccccc3)cc2)NC(=O)[C@H](C(C)C)NC(=O)[C@H](Cc2c[nH]c3ccccc23)NC(=O)[C@H](CC(=O)O)NC(=O)[C@H](Cc2ccc(O)cc2)NC(=O)[C@H](Cc2cnc[nH]2)NC(=O)CSC[C@@H](C(=O)NCC(N)=O)NC(=O)[C@H](CO)NC(=O)[C@H](C(C)C)NC1=O [Example 1315] ({CH2CO}-HYDWV[Bip]RR[NMeF]RLVSCG-NH2; thioether N-14)
10,7.10,CC(C)C[C@@H]1NC(=O)[C@H](CCN)NC(=O)[C@H](Cc2ccccc2)N(C)C(=O)[C@H](C)N(C)C(=O)[C@H](CCCNC(=N)N)NC(=O)[C@H](Cc2ccc(-c3ccccc3)cc2)NC(=O)[C@H](C(C)C)NC(=O)[C@H](Cc2c[nH]c3ccccc23)NC(=O)[C@H](CC(=O)O)NC(=O)[C@H](Cc2ccc(O)cc2)NC(=O)[C@H](Cc2cnc[nH]2)NC(=O)CSC[C@@H](C(=O)N[C@@H](C)C(N)=O)NC(=O)[C@H](CO)NC(=O)[C@H](C(C)C)NC1=O [Example 1316] ({CH2CO}-HYDWV[Bip]R[NMeA][NMeF][Dab]LVSCA-NH2; thioether N-14)
11,7.22,CC(C)C[C@@H]1NC(=O)[C@H](CCCNC(=N)N)NC(=O)[C@H](Cc2ccccc2)N(C)C(=O)[C@H](C)N(C)C(=O)[C@H](CCCNC(=N)N)NC(=O)[C@H](Cc2ccc(-c3ccccc3)cc2)NC(=O)[C@H](C(C)C)NC(=O)[C@H](Cc2c[nH]c3ccccc23)NC(=O)[C@H](CC(=O)O)NC(=O)[C@H](Cc2ccc(O)cc2)NC(=O)[C@H](Cc2cnc[nH]2)NC(=O)CSC[C@@H](C(=O)NCC(N)=O)NC(=O)[C@H]([C@@H](C)O)NC(=O)[C@H](C(C)C)NC1=O [Example 1317] ({CH2CO}-HYDWV[Bip]R[NMeA][NMeF]RLVTCG-NH2; thioether N-14)
